The values below come from patent US12331044B2, “Inhibitors of histone deacetylase useful for the treatment or prevention of HIV infection” (Merck Sharp & Dohme LLC, priority 2018, dated 2025).

By IC50 is commonly meant the point on the concentration scale where inhibition reaches its midpoint. The term EC50 denotes the concentration giving half of the maximal effect.

Molecules are shown by their SMILES. Like-named read-outs stand apart in the source and are kept apart here.

One test has as its target human HDAC1 (Homo sapiens (Human), UniProt Q13547).
Another test addresses HDAC6 (Homo sapiens (Human), UniProt Q9UBN7).
Another test addresses human HDAC2 (Homo sapiens (Human), UniProt Q92769). Kind of test: HDAC2 inhibition assay (modified FLUOR DE LYS, 384-well). Format: biochemical. As to conditions: […] enzyme, 40 μM substrate BML-KI104, 3 h pre-incubation; read-out: HDAC2 IC50.
A further test concerns the target human HDAC8 (Homo sapiens (Human), UniProt Q9BY41). The test can be described thus: HDAC8 inhibition assay (modified FLUOR DE LYS, 384-well). Format: biochemical. As to conditions: […] enzyme, 200 μM substrate BML-KI178, 3 h pre-incubation; read-out: HDAC8 IC50.
A further test deals with KARN cells (Jurkat 2C4). Kind of test: cells. As to conditions: Homo sapiens.
The mark [1] stands for this setting: read-out: Karn EC50 nM 0.1% NHS, 0.1% normal human serum, luciferase induction, 2 μM SAHA = 100%.
The mark [2] stands for this setting: read-out: Karn EC50 nM 5% NHS, 5% normal human serum, luciferase induction, 2 μM SAHA = 100%.

Chain of HDAC6 (Q9UBN7 whole entry): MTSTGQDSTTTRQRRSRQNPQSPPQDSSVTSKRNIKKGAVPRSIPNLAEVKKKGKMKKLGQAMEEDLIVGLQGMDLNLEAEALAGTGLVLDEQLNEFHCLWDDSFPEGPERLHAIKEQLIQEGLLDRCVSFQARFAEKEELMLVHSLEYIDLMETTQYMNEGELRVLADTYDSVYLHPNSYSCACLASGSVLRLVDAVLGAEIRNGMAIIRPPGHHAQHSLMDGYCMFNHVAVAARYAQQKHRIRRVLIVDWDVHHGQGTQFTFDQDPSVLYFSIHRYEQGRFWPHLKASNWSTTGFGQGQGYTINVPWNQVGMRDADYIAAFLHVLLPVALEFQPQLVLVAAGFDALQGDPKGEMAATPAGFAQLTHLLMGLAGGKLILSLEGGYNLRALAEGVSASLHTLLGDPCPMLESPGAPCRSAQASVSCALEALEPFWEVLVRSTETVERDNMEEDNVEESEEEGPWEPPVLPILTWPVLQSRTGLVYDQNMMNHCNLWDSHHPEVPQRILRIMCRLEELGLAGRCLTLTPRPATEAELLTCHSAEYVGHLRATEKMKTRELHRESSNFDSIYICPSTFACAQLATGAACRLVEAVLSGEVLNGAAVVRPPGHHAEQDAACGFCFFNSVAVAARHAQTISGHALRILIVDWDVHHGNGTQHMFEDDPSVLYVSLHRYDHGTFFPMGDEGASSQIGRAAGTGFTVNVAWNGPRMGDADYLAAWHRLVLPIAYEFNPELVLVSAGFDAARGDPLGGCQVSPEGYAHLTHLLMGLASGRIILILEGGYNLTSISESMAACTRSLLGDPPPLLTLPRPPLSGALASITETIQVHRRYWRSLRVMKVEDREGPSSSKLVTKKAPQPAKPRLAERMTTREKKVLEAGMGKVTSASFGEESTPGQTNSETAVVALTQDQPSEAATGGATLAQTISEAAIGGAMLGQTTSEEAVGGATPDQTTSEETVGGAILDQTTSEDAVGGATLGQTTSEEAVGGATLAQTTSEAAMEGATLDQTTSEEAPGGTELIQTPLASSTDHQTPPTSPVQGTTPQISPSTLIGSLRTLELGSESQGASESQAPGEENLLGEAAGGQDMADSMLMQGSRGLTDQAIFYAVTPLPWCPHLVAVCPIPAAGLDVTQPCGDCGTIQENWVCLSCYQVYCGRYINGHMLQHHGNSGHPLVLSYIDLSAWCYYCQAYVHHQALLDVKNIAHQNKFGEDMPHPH
Chain of human HDAC8 (Q9BY41 whole entry): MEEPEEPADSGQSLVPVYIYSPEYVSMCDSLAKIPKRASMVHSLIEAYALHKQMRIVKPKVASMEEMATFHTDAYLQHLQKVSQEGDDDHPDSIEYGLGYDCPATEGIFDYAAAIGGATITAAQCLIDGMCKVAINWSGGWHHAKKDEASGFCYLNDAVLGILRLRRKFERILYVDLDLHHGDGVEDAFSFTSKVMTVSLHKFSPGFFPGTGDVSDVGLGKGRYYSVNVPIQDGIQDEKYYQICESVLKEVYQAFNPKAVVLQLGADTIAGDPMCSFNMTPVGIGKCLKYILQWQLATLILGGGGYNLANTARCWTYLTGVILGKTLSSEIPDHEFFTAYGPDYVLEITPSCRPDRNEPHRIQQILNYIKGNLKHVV
Chain of human HDAC1 (Q13547 whole entry): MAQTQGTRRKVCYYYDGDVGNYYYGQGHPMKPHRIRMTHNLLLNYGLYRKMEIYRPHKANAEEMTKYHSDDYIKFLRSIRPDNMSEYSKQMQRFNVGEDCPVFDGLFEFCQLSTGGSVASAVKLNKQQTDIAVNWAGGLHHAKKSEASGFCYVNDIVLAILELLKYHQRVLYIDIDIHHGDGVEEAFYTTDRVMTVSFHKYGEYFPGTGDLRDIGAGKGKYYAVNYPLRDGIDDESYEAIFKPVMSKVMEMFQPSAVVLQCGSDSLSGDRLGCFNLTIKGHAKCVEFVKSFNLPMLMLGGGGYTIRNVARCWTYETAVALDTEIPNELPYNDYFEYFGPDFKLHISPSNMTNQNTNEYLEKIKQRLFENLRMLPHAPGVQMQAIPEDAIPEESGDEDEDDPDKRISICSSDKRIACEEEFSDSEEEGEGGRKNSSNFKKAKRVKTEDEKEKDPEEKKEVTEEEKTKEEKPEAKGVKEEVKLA
Chain of human HDAC2 (Q92769 whole entry): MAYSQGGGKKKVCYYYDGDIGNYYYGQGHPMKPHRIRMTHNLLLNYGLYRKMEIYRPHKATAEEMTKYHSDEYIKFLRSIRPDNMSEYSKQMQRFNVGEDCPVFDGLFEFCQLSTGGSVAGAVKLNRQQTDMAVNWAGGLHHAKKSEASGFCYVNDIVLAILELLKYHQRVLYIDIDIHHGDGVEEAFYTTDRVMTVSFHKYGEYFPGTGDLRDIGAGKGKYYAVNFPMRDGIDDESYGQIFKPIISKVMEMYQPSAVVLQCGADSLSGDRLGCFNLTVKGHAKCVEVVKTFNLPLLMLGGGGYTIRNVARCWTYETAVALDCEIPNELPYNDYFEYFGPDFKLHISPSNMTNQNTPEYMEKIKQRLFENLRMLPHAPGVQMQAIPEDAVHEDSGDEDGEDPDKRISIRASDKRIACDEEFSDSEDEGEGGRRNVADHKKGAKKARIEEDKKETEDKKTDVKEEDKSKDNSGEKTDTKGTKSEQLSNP
Protocol for KARN cells (Jurkat 2C4): KARN Assay Cell Maintenance
KARN cells (Jurkat 2C4) were licensed from the laboratory of Dr. John Karn, Case Western Reserve University, School of Medicine. […] An atmosphere of 5% CO2 and 90% humidity was used for all culture work.
These flasks were returned to the incubator.
The cells were gently resuspended in assay media (30 ml) and pelleted again. […] The cells were counted using the ViCell (Beckman Coulter) and diluted as necessary. […] The plates were covered and returned to the incubator prior to compound addition.
The reference compounds, DMSO and SAHA were then added to the compound plate. […] The final high concentration for SAHA and the test compounds in the assays was 40 μM. The final DMSO concentration in all wells was 0.4%. The minimal induction reference compound used was DMSO and the maximal induction reference compound used was SAHA (2 μM final concentration in the assay).
Day 3: The luciferase detection reagent was prepared by transferring the contents of one bottle of Steady-Glo buffer to one bottle of Steady-Glo aubstrate (Steady-Glo Luciferase Assay System, Promega, catalog number E2520), followed by gently mixing until the substrate was thoroughly dissolved and the solution was equilibrated to room temperature. […] The Steady-Glo Reagent was added to the plates (30 μl/well), which were then covered with a black lid and incubated for 10 minutes at room temperature. The plates were then read for luminescence on an Envision (Perkin Elmer) using the ultrasensitive mode (US LUM), 0.1 counts per second and 384-well aperture. Luminescence counts in the DMSO reference wells were considered as 0% induction, while those in the 2 μM SAHA reference wells were considered as 100% induction. Dose response curves were plotted as test compound concentration (X-axis) vs. percent activation (Y-axis) using a 4-parameter fit based on the Levenberg-Marquardt algorithm.
Protocol for human HDAC8: The histone deacetylase activities of HDAC1, HDAC2, HDAC3, HDAC6, and HDAC8 were measured in modified FLUOR DE LYS assays in 384-well format. In this assay, HDAC enzymes are initially incubated with an F-acetyl (or -trifluoroacetyl)-L-lysine-containing substrate with a C-terminal amide having aminomethylcoumarin as the amine component. HDACs cleave the F-acetyl group, rendering the resulting product susceptible to AMC cleavage by trypsin. The released AMC is then detected by its fluorescence. […] All steps were performed at room temperature (23° C.). The assay was performed by pre-incubating serial dilutions of test compounds with the target HDAC prior to initiation with substrate. […] Final conditions used for each assay were: 1. […] The reactions were stopped and developed by addition of 30 ul of HDAC developer solution containing a saturating level of HDAC inhibitor as follows: 1. […] For data analysis, background subtracted product (fluorescence) vs. time data for each inhibitor concentration was fitted using a 4-parameter fit.

Regarding `CN1CC(C(=O)N[C@@H](CCCCCC(=O)c2ncco2)c2nc(-c3ccc(F)cc3)c[nH]2)C1` [Example 1, (S)-N-(1-(4-(4-fluorophenyl)-1H-imidazol-2-yl)-7-(oxazol-2-yl)-7-oxoheptyl)-1-methylazetidine-3-carboxamide], the IC50 against human HDAC1 turned out to be 1.1 nM; against HDAC6 it was 45000 nM.

As for `CN1CCC1C(=O)N[C@@H](CCCCCC(=O)c1ccon1)c1ncc(-c2ccccc2F)[nH]1` (stereo partly shown) [Example 60], the half-maximal inhibitory concentration (IC50) at human HDAC2 was 0.41 nM; at human HDAC8, 1.7 nM; against human HDAC1, 0.13 nM; against HDAC6, over 900 nM. The figures for the half-maximal effective concentration (EC50) with KARN cells (Jurkat 2C4) (setting [1]) and in the test on KARN cells (Jurkat 2C4) (setting [2]) were 4.2 nM and 9 nM, respectively.

On to `CCN[C@@H](CCCCCC(=O)c1ncco1)c1ncc(-c2cc3ccc(=O)n(C)c3cc2OC)[nH]1` [Example 77, (S)-6-(2-(1-(ethylamino)-7-(oxazol-2-yl)-7-oxoheptyl)-1H-imidazol-5-yl)-7-methoxy-1-methylquinolin-2(1H)-one], for which the half-maximal inhibitory concentration (IC50) on human HDAC8 and on HDAC6 was over 900 nM in each case. The EC50 in the test on KARN cells (Jurkat 2C4) (setting [1]) and in the test with KARN cells (Jurkat 2C4) (setting [2]) was 120 nM each time.

As to `N[C@@H](CCCCCC(=O)c1ccon1)c1cc(-c2ccc(F)cc2)on1` [Example 118, (S)-7-amino-7-(5-(4-fluorophenyl)isoxazol-3-yl)-1-(isoxazol-3-yl)heptan-1-one], the IC50 came out at 8 nM at human HDAC2, 300 nM at human HDAC8, 2.4 nM against human HDAC1 and 45000 nM against HDAC6. Besides, the concentration giving a half-maximal response (EC50) with KARN cells (Jurkat 2C4) (setting [1]) was determined as 780 nM; with KARN cells (Jurkat 2C4) (setting [2]), 1600 nM.

`N[C@H](CCCCCC(=O)c1ccon1)c1cc(-c2ccc(F)cc2)on1` [Example 119, (R)-7-amino-7-(5-(4-fluorophenyl)isoxazol-3-yl)-1-(isoxazol-3-yl)heptan-1-one]: the IC50 at human HDAC2 stood at 420 nM; on human HDAC8, 260 nM; on human HDAC1, 96 nM; on HDAC6, 45000 nM. Besides, the concentration giving a half-maximal response (EC50) in the test on KARN cells (Jurkat 2C4) (setting [1]) worked out at 10000 nM.

As for `N[C@@H](CCCCCC(=O)c1ncco1)c1ncc(-c2cc(F)ccc2F)[nH]1` [Example 135, (7S)-7-amino-7-[5-(2,5-difluorophenyl)-1H-imidazol-2-yl]-1-(1,3-oxazol-2-yl)heptan-1-one], the IC50 at human HDAC8 and at HDAC6 was over 900 nM in each case. Besides, the concentration giving a half-maximal response (EC50) in the test on KARN cells (Jurkat 2C4) (setting [1]) was 5600 nM; in the test with KARN cells (Jurkat 2C4) (setting [2]) it was 13000 nM.

In the case of `N[C@@H](CCCCCC(=O)c1ncco1)c1ncc(-c2ccc(OC(F)(F)F)cc2F)[nH]1` [Example 141, (7S)-7-amino-7-{5-[2-fluoro-4-(trifluoromethoxy)phenyl]-1H-imidazol-2-yl}-1-(1,3-oxazol-2-yl)heptan-1-one], the half-inhibitory concentration (IC50) at human HDAC8 and at HDAC6 was over 900 nM each time. Moreover, the concentration giving a half-maximal response (EC50) in the test with KARN cells (Jurkat 2C4) (setting [1]) was determined as 2400 nM; in the test on KARN cells (Jurkat 2C4) (setting [2]) it was 3500 nM.

Regarding `CN1CC(C(=O)N[C@@](C)(CCCCCC(=O)c2ccon2)c2ncc(-c3ccccc3F)[nH]2)C1` [Example 184, (S)-N-(2-(5-(2-fluorophenyl)-1H-imidazol-2-yl)-8-(isoxazol-3-yl)-8-oxooctan-2-yl)-1-methylazetidine-3-carboxamide], at HDAC6, the IC50 is over 900 nM. Besides, the EC50 in the test on KARN cells (Jurkat 2C4) (setting [1]) stood at 56 nM; with KARN cells (Jurkat 2C4) (setting [2]), 57 nM.

`CN1CC(C(=O)N[C@@H](CCCCCC(=O)c2ccon2)c2nc(Cl)c(-c3ccc(F)cc3)[nH]2)C1` [Example 196, (S)-N-(1-(4-chloro-5-(4-fluorophenyl)-1H-imidazol-2-yl)-7-(isoxazol-3-yl)-7-oxoheptyl)-1-methylazetidine-3-carboxamide 2,3-dihydroxysuccinate] showed an IC50 against HDAC6 of 4600 nM. Further, the EC50 stood at 3.8 nM in the test on KARN cells (Jurkat 2C4) (setting [1]) and 7.5 nM with KARN cells (Jurkat 2C4) (setting [2]).
